In patent US11059832B2, “HPK1 inhibitors and methods of using same” (University Health Network, priority 2015, dated 2021):

What was measured:
[1] = target: T1, human HPK1 (MAP4K1) (Homo sapiens, UniProt Q92918); experiment: HPK1 inhibition assay (indirect ELISA); format: biochemical; details: GST-HPK1 0.6 nM, 12 μM ATP; read-out: IC50 Range HPK1
T1 construct: human HPK1 (aa 1-346); purchased Invitrogen PV6355
T1 sequence (Q92918 1-346): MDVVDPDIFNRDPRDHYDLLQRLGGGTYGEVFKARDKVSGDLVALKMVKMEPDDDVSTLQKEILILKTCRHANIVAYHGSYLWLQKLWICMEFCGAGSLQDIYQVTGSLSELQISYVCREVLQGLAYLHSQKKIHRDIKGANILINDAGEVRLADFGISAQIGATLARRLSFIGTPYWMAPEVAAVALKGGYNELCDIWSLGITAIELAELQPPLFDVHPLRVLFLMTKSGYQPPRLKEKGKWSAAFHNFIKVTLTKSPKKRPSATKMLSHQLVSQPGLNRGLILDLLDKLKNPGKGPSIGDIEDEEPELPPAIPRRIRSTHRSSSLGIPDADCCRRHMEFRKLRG
Protocol: Active HPK1 (MAP4K1) was purchased as an N-terminal GST fusion of human HPK1 (aa 1-346) from Invitrogen (cat #PV6355). HPK1 activity was measured using an indirect ELISA detection system. GST-HPK1 (0.6 nM) was incubated in the presence of 12 μM ATP (Sigma cat #A7699), 5 mM MOPS (pH 7.2), 2.5 mM β-glycerol-phosphate, 5 mM MgCl2, 0.4 mM EDTA, 1 mM EGTA, 0.05 mM DTT, in a 96 well microtitre plate pre-coated with 0.5 μg/well bovine myelin basic protein (MBP) (Millipore, cat #13-110). The reaction was allowed to proceed for 30 min, followed by 5 washes of the plate with Wash Buffer (phosphate buffered saline supplemented with 0.2% Tween 20), and incubation for 30 min with a 1:3000 dilution of anti-phospho-threonine rabbit polyclonal antibody (Cell Signaling cat #9381). The plate was washed 5 times with wash buffer, incubated for 30 min in the presence of goat anti-rabbit horse radish peroxidase conjugate (BioRad cat #1721019, 1:3000 concentration), washed an additional 5 times with wash buffer, and incubated in the presence of TMB substrate (Sigma cat #T0440). The colorimetric reaction was allowed to continue for 5 min, followed by addition of stop solution (0.5 N H2SO4), and quantified by detection at 450 nm with a monochromatic plate reader (Molecular Devices M5).
Compound inhibition was determined at either a fixed concentration (10 μM) or at a variable inhibitor concentration (typically 50 μM to 0.1 μM in a 10 point dose response titration). Compounds were pre-incubated in the presence of enzyme for 15 min prior to addition of ATP and the activity remaining quantified using the above described activity assay. The % inhibition of a compound was determined using the following formula; % inhibition=100×(1−(experimental value−background value)/(high activity control−background value)). The IC50 value was determined using a non-linear 4 point logistic curve fit (XLfit4, IDBS) with the formula; (A+(B/(1+((x/C)^D)))), where A=background value, B=range, C=inflection point, D=curve fit parameter.

[2] = target: T2, LCK (Homo sapiens, UniProt P06239); experiment: LCK inhibition, FRET based Z'-LYTE Kinase Assay; format: biochemical; details: 25 nM LCK, 180 μM ATP; read-out: IC50 Range Lck
T2 construct: purchased Invitrogen P3043
Protocol: FLT3 and LCK compound inhibition were determined using FRET based Z′-LYTE Kinase Assay Kit with Tyrosine 2 peptide as the substrate (Invitrogen cat #PV3191). […] The % inhibition values were determined according to the manufacturer's directions and IC50 values were obtained using a non-linear 4 point logistic curve fit (XLfit4, IDBS).

T2 sequence (P06239 whole entry, species assumed): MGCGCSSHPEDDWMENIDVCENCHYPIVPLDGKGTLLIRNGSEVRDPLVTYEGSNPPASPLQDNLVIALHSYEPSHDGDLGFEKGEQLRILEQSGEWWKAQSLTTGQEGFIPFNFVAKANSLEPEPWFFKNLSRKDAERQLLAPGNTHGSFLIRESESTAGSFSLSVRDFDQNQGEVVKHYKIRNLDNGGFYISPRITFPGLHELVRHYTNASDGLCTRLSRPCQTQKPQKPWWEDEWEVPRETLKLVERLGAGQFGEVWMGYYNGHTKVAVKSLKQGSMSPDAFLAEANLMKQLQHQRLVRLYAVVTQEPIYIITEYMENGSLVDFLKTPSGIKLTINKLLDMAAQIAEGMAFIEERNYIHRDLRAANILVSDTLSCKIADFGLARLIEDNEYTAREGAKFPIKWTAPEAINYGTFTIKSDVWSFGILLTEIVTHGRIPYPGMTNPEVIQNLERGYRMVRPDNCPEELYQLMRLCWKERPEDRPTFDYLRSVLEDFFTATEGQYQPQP

| Structure (SMILES) | IC50 [1] [nM] | IC50 [2] [nM] |
| --- | --- | --- |
| Cc1cc2c(N)c(-c3nc4ccc(N5CCN(C)CC5)cc4[nH]3)c(=O)[nH]c2s1 [Example A3, 4-amino-2-methyl-5-(6-(4-methylpiperazin-1-yl)-1H-benzo[d]imidazol-2-yl)thieno[2,3-b]pyridin-6(7H)-one] | > 500 | – |
| COc1csc2[nH]c(=O)c(-c3nc4ccc(N5CCN(C)CC5)cc4[nH]3)c(N)c12 [Example A5, 4-amino-3-methoxy-5-(6-(4-methylpiperazin-1-yl)-1H-benzo[d]imidazol-2-yl)thieno[2,3-b]pyridin-6(7H)-one] | > 500 | > 500 |
| CCOc1csc2[nH]c(=O)c(-c3nc4ccc(N5CCN(C)CC5)cc4[nH]3)c(N)c12 [Example A6, 4-amino-3-ethoxy-5-(6-(4-methylpiperazin-1-yl)-1H-benzo[d]imidazol-2-yl)thieno[2,3-b]pyridin-6(7H)-one] | 50 to 500 | – |
| CN1CCN(c2ccc3nc(-c4c(N[C@H]5CCOC5)c5ccsc5[nH]c4=O)[nH]c3c2)CC1 [Example A11, (S)-5-(6-(4-methylpiperazin-1-yl)-1H-benzo[d]imidazol-2-yl)-4-((tetrahydrofuran-3-yl)amino)thieno[2,3-b]pyridin-6(7H)-one] | ≤ 50 | – |
| CN1CCN(c2ccc3nc(-c4c(N[C@H]5C[C@@H](O)C5)c5ccsc5[nH]c4=O)[nH]c3c2)CC1 [Example A12, 4-(((1s,3s)-3-hydroxycyclobutyl)amino)-5-(6-(4-methylpiperazin-1-yl)-1H-benzo[d]imidazol-2-yl)thieno[2,3-b]pyridin-6(7H)-one] | ≤ 50 | – |
| CC(C)[C@H](CO)Nc1c(-c2nc3ccc(N4CCN(C)CC4)cc3[nH]2)c(=O)[nH]c2sccc12 [Example A16, (R)-4-((1-hydroxy-3-methylbutan-2-yl)amino)-5-(6-(4-methylpiperazin-1-yl)-1H-benzo[d]imidazol-2-yl)thieno[2,3-b]pyridin-6(7H)-one] | ≤ 50 | – |
| Cc1csc2[nH]c(=O)c(-c3nc4ccc(N5CCN(C)CC5)cc4[nH]3)c(NC3CCCC3)c12 [Example A19, 4-(cyclopentylamino)-3-methyl-5-(6-(4-methylpiperazin-1-yl)-1H-benzo[d]imidazol-2-yl)thieno[2,3-b]pyridin-6(7H)-one] | 50 to 500 | – |
| Cc1csc2[nH]c(=O)c(-c3nc4ccc(N5CCN(C)CC5)cc4[nH]3)c(NC3CCOCC3)c12 [Example A20, 3-methyl-5-(6-(4-methylpiperazin-1-yl)-1H-benzo[d]imidazol-2-yl)-4-((tetrahydro-2H-pyran-4-yl)amino)thieno[2,3-b]pyridin-6(7H)-one] | > 500 | – |
| CN1CCN(c2ccc3nc(-c4c(NC5CCOCC5)c5cscc5[nH]c4=O)[nH]c3c2)CC1 [Example A25, 3-(6-(4-methylpiperazin-1-yl)-1H-benzo[d]imidazol-2-yl)-4-((tetrahydro-2H-pyran-4-yl)amino)thieno[3,4-b]pyridin-2(1H)-one] | ≤ 50 | – |
| CN1CCN(c2ccc3nc(-c4c(NCCN5CCOCC5)c5cscc5[nH]c4=O)[nH]c3c2)CC1 [Example A26, 3-(6-(4-methylpiperazin-1-yl)-1H-benzo[d]imidazol-2-yl)-4-((2-morpholinoethyl)amino) thieno[3,4-b]pyridin-2(1H)-one] | ≤ 50 | – |
| CN1CCN(c2ccc3nc(-c4c(NCc5ccccn5)c5cscc5[nH]c4=O)[nH]c3c2)CC1 [Example A28, 3-(6-(4-methylpiperazin-1-yl)-1H-benzo[d]imidazol-2-yl)-4-((pyridin-2-ylmethyl)amino)thieno[3,4-b]pyridin-2(1H)-one] | ≤ 50 | – |
| CN1CCN(c2ccc3nc(-c4c(O)c5sccc5[nH]c4=O)[nH]c3c2)CC1 [Example A29, 7-hydroxy-6-(6-(4-methylpiperazin-1-yl)-1H-benzo[d]imidazol-2-yl)thieno[3,2-b]pyridin-5(4H)-one] | ≤ 50 | 50 to 500 |
| Cc1cc2[nH]c(=O)c(-c3nc4ccc(N5CCN(C)CC5)cc4[nH]3)c(N)c2s1 [Example A32, 7-amino-2-methyl-6-(6-(4-methylpiperazin-1-yl)-1H-benzo[d]imidazol-2-yl)thieno[3,2-b]pyridin-5(4H)-one] | > 500 | ≤ 50 |
| C[C@@H]1CN(c2ccc3nc(-c4c(NC5CCCC5)c5sccc5[nH]c4=O)[nH]c3c2)C[C@H](C)N1C [Example A47, 7-(cyclopentylamino)-6-(6-(3r,5s)-rel-3,4,5-trimethylpiper-azin-1-yl)-1H-benzo[d]imidazol-2-yl)thieno[3,2-b]pyridin-5(4H)-one] | ≤ 50 | – |
| CN1CCN(c2ccc3nc(-c4c(N5CCOCC5)c5sccc5[nH]c4=O)[nH]c3c2)CC1 [Example A49, 6-(6-(4-methylpiperazin-1-yl)-1H-benzo[d]imidazol-2-yl)-7-morpholinothieno[3,2-b]pyridin-5(4H)-one] | > 500 | – |
| CN1CCN(c2ccc3nc(-c4c(N5CCC(O)CC5)c5sccc5[nH]c4=O)[nH]c3c2)CC1 [Example A50, 7-(4-hydroxypiperidin-1-yl)-6-(6-(4-methylpiperazin-1-yl)-1H-benzo[d]imidazol-2-yl)thieno[3,2-b]pyridin-5(4H)-one] | > 500 | > 500 |
| Nc1c(-c2nc3cc(F)c(N4CCOCC4)cc3[nH]2)c(=O)[nH]c2sccc12 [Example A56, 4-amino-5-(5-fluoro-6-morpholino-1H-benzo[d]-imidazol-2-yl)-thieno-[2,3b]-pyridin-6(7H)-one] | ≤ 50 | – |
| CN1CCN(C(=O)c2ccc3[nH]c(-c4c(N)c5ccsc5[nH]c4=O)nc3c2)CC1 [Example A60, 4-amino-5-(5-(4-methylpiperazine-1-carbonyl)-1H-benzo[d]imidazol-2-yl)thieno[2,3-b]-pyridin-6(7H)-one] | 50 to 500 | 50 to 500 |
| Nc1c(-c2nc3cc(C(=O)N4CCOCC4)ccc3[nH]2)c(=O)[nH]c2sccc12 [Example A62, 4-amino-5-(5-(morpho-line-4-carbonyl)-1H-benzo-[d]imidazol-2-yl)thieno[2,3-b]pyridin-6(7H)-one] | 50 to 500 | – |
| CN1CCN(c2ccc3nc(-c4c(NC5CC5)c5sccc5[nH]c4=O)[nH]c3c2)CC1 [Example A63, 7-(cyclopropylamino)-6-(6-(4-methylpiperazin-1-yl)-1H-benzo[d]imidazol-2-yl)thieno[3,2-b]-pyridin-5(4H)-one 2,2,2-trifluroaceatate] | ≤ 50 | – |
| C[C@@H]1CN(c2ccc3nc(-c4c(N[C@H]5CCCC[C@H]5O)c5ccsc5[nH]c4=O)[nH]c3c2)C[C@H](C)O1 [Example A73] | 50 to 500 | – |
| COCCNc1c(-c2nc3ccc(N4CCN(C)CC4)cc3[nH]2)c(=O)[nH]c2sccc12 [Example A74, 4-((2-methoxyethyl)amino)-5-(6-(4-methylpiperazin-1-yl)-1H-benzo[d]imidazol-2-yl)thieno[2,3-b]pyridin-6(7H)-one] | ≤ 50 | – |
| CN1CCN(c2ccc3nc(-c4c(N[C@@H]5CCC[C@H]5O)c5cscc5[nH]c4=O)[nH]c3c2)CC1 [Example A75, 4-(((1R,2R)-2-hydroxycyclopentyl)amino)-3-(6-(4-methylpiperazin-1-yl)-1H-benzo[d]imidazol-2-yl)thieno[3,4-b]pyridin-2(1H)-one] | ≤ 50 | – |
| C[C@@H]1CN(c2ccc3nc(-c4c(N)c5ccsc5[nH]c4=O)[nH]c3c2)C[C@H](C)O1 [Example A76, 4-amino-5-(6-((2S,6R)-2,6-dimethylmorpholino)-1H-benzo[d]imidazol-2-yl)thieno[2,3-b]pyridin-6(7H)-one] | ≤ 50 | – |
| CN1CCN(c2ccc3nc(-c4c(N[C@@H]5CCCOC5)c5ccsc5[nH]c4=O)[nH]c3c2)CC1 [Example A77, (R)-5-(6-(4-methylpiperazin-1-yl)-1H-benzo[d]imidazol-2-yl)-4-((tetrahydro-2H-pyran-3-yl)amino)thieno[2,3-b]pyridin-6(7H)-one] | ≤ 50 | – |
